Data from ChEMBL document CHEMBL1201862, “PubChem BioAssay data set” (2004).
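How tested: cells in 96-well plates exposed to compound for 48 hours at five concentrations. GI50 is the concentration that inhibits growth by half.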 Calls of active or inactive are those of the source. Rule as the data show it: active = GI50 up to about 1.1 µM and inactive = higher.

Tests used:
Test in all cases: inhibition of tumour cell growth, NCI panel, 48 h
[1] = system: A549
[2] = system: CAKI-1
[3] = system: HOP-62
[4] = system: HT-29
[5] = system: IGROV-1
[6] = system: KM12
[7] = system: MOLT-4
[8] = system: NCI-H460
[9] = system: OVCAR-3
[10] = system: OVCAR-4
[11] = system: OVCAR-8
[12] = system: SF-268
[13] = system: SF-295
[14] = system: SF-539
[15] = system: SK-MEL-2
[16] = system: SK-MEL-5
[17] = system: SNB-19
[18] = system: SW-620
[19] = system: UACC-257
[20] = system: M14

Measured: GI50

COc1cc(/C=C(\C#N)C(N)=O)cc(Br)c1O
inactive: [1] > 100 µM | [2] > 100 µM | [3] 92.3 µM | [4] > 100 µM | [5] > 100 µM | [6] > 100 µM | [7] > 100 µM | [8] > 100 µM | [9] > 100 µM | [10] > 100 µM | [11] > 100 µM | [12] > 100 µM | [13] > 100 µM | [14] > 100 µM | [15] > 100 µM | [16] > 100 µM | [17] > 100 µM | [18] > 100 µM | [19] > 100 µM

C/C=C/c1cc(=O)c([C@@H]2OC(=O)c3cc(OC)cc(OC)c32)co1 [VERMISTATIN]
inactive: [1] 58.6 µM | [2] 42.1 µM | [3] 53 µM | [4] 34.6 µM | [5] 37 µM | [6] 31.6 µM | [20] 58.7 µM | [7] 38.6 µM | [8] 58.3 µM | [9] 20.7 µM | [10] 54.3 µM | [11] 46.8 µM | [12] 43.5 µM | [13] 39.5 µM | [14] 26.7 µM | [15] 28.5 µM | [16] 50.5 µM | [17] > 100 µM | [18] 55.5 µM | [19] 29.1 µM

CC1SC(c2ccccc2)N(Nc2c3ccccc3nc3ccccc23)C1=O (stereo not drawn)
inactive: [1] 58.5 µM | [2] 46.9 µM | [3] > 100 µM | [4] > 100 µM | [5] 27 µM | [6] 71.4 µM | [20] > 100 µM | [7] 28.9 µM | [8] > 100 µM | [9] > 100 µM | [10] > 100 µM | [11] 74.1 µM | [12] > 100 µM | [13] 69 µM | [14] > 100 µM | [15] > 100 µM | [16] 38.4 µM | [17] > 100 µM | [18] > 100 µM | [19] 83.6 µM

CCCCN1C=CN2c3nc4cc(C)c(C)cc4n3C(C(=O)OC)=C(C(=O)OC)C12 (stereo not drawn)
inactive: [1] > 100 µM | [2] > 100 µM | [3] > 100 µM | [4] > 100 µM | [5] > 100 µM | [20] > 100 µM | [7] > 100 µM | [8] > 100 µM | [9] > 100 µM | [10] > 100 µM | [11] > 100 µM | [12] > 100 µM | [13] > 100 µM | [14] > 100 µM | [15] > 100 µM | [16] > 100 µM | [17] > 100 µM | [18] > 100 µM | [19] > 100 µM

CCCCCCCCCCCCCCCCCC(=O)OCC1OC(OC)C(NC(=O)N(CCCl)N=O)C(O)C1O (stereo not drawn)
inactive: [1] 18.1 µM | [2] > 100 µM | [3] > 100 µM | [4] 20.9 µM | [5] 32.5 µM | [6] 24.8 µM | [20] 27.8 µM | [7] 4.41 µM | [8] 5.96 µM | [9] 26.9 µM | [10] 24 µM | [11] 33.5 µM | [12] 8.3 µM | [13] 14.9 µM | [14] 9.86 µM | [15] 45.9 µM | [16] 26.3 µM | [17] 24.9 µM | [18] 14.1 µM | [19] 16.8 µM

COC(=O)C1=C(OC(=O)/C(=C/c2ccc(Cl)cc2)c2ccc(Cl)cc2)C(C(=O)OC)[C@]2(O)[C@@H](C(=O)OC)[C@H]1C[C@@H](c1ccccc1)[C@@H]2C(=O)OC (stereo partly drawn)
inactive: [1] 52.8 µM | [2] > 100 µM | [3] 32.7 µM | [4] > 100 µM | [5] 38.8 µM | [6] > 100 µM | [20] 30.1 µM | [7] 2.22 µM | [8] > 100 µM | [9] 27 µM | [10] > 100 µM | [11] > 100 µM | [12] > 100 µM | [13] 29.6 µM | [14] > 100 µM | [15] > 100 µM | [16] > 100 µM | [17] 59 µM | [18] > 100 µM | [19] > 100 µM
